In US4895842A, “Phenylalanine derivative and proteinase inhibitor” (Shosuke Okamoto, priority 1985, dated 1990):
Counter-ions that a name gives are not always drawn. Like-named read-outs stand apart in the source and are kept apart here.

Tests used:
human plasmin [1] = molecular target: T1, human plasmin (Homo sapiens, UniProt P00747); experiment: biochemical; details: read-out: Plasmin S-2251 (I50)
Outline: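 Inhibitor in 0.05M Tris-HCl buffer, pH 7.4, was incubated with human plasmin added at 0.2 casein unit/ml (stock) at 37° C for 4 minutes, then stopped with 50% acetic acid. I50 (μmol) is the inhibitor concentration giving half the absorbance obtained without inhibitor.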

bovine thrombin [2] = molecular target: T2, bovine thrombin (Bos taurus, UniProt P00735); experiment: Antithrombin activity: inhibition of S-2238 decomposition; type: biochemical
Outline: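 Inhibitor in 0.05 M Tris-HCl, pH 8.3, preincubated with S-2238 (0.2 mM stock) for 5 min at 37 °C. Bovine thrombin (0.2 unit/ml stock) then added, and p-nitroaniline release followed at 405 nm by initial velocity at 37 °C. I50 is the concentration halving the rate.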

bovine trypsin = molecular target: T3, bovine trypsin (Bos taurus, UniProt P00760); experiment: Antitrypsin activity: inhibition of S-2238 decomposition; type: biochemical; details: S-2238 substrate, read-out: Trypsin S-2238 (I50)
T3 sequence (P00760 24-246): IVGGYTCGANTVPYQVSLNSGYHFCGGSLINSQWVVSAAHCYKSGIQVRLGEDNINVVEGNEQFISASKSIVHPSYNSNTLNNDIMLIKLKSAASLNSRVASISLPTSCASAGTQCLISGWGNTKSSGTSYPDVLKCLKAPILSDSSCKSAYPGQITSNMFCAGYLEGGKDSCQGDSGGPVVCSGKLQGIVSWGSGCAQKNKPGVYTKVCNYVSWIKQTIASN
Method: Determination of inhibition activity against S-2238 decomposition
An inhibitor sample is dissolved in a 0.05M Tris-imidazole buffer solution (pH=8.1) and 125 μl of a 1 mM S-2238 solution is added to make the total volume to 1.20 ml. The mixture is incubated at a temperature of 37° C. for 5 minutes in a constant temperature bath. To this mixture, 0.05 ml of bovine trypsin is added and the absorbance, at 405 nm, of the p-nitroaniline formed per minute is determined at a temperature of 37° C. by using the so-called initial velocity method. Thus, the concentration I50 (μmol) of the inhibitor sample, at which the absorbance is one half (i.e., 1/2) of that obtained in the absence of the inhibitor sample, is determined.

bovine thrombin [3] = molecular target: T2, bovine thrombin; experiment: Antithrombin activity: inhibition of fibrin formation from fibrinogen; type: biochemical
Outline: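 Inhibitor in 0.18M borate-saline buffer pH 7.4 mixed with 0.2% bovine fibrinogen and 4 unit/ml bovine thrombin (stock levels) at 37° C; clotting time measured. I50 is the inhibitor concentration doubling coagulation time versus uninhibited control.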

human plasmin [4] = molecular target: T1, human plasmin; experiment: Antiplasmin activity: inhibition of fibrin decomposition; type: biochemical; details: read-out: Plasmin Fibrin (I50)
Outline: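 Inhibitor in 0.18 M borate–physiological saline buffer, pH 7.4, received bovine fibrinogen (0.2% solution), human plasmin (0.3 casein unit/ml solution) and bovine thrombin (50 unit/ml solution) at 37 °C. Time for the resulting fibrin clot to dissolve was recorded.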

human urokinase = human urokinase (Homo sapiens, UniProt P00749); experiment: biochemical; details: S-2444 substrate, read-out: Urokinase S-2444 (I50)
Outline: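 Inhibitor in 0.05M Tris-HCl pH 8.8 preincubated 5 min at 37° C with S-2444 (1 mM solution added), then human urokinase (500 unit/ml solution) added for 5 min at 37° C; stopped with 50% acetic acid. p-Nitroaniline read at 405 nm; I50 is concentration halving absorbance versus no inhibitor.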

human plasma kallikrein = human plasma kallikrein (Homo sapiens, UniProt P03952); experiment: Anti-plasma kallikrein activity: inhibition of S-2302 decomposition; type: biochemical; details: S-2302 substrate, read-out: Plasma Kallikrein S-2302 (I50)
human plasma kallikrein, sequence (P03952 391-638 limits assumed): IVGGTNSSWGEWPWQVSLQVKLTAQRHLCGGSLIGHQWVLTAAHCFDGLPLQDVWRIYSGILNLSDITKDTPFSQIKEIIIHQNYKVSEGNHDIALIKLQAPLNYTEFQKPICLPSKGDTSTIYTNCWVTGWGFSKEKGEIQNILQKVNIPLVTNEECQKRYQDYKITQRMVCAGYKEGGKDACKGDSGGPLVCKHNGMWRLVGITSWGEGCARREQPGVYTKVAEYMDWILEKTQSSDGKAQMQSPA
human plasma kallikrein, sequence (P03952 20-390 partner limits assumed): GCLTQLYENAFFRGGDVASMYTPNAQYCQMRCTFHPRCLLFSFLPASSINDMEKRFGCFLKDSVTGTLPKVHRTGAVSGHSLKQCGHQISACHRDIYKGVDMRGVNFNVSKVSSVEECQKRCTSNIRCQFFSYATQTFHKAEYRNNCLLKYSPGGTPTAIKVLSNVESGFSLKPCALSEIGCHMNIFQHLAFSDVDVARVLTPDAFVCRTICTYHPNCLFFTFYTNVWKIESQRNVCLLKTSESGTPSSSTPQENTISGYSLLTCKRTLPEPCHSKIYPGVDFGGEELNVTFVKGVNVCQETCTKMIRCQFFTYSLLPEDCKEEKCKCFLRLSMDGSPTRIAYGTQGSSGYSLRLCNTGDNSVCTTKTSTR
Method: Determination of inhibition activity for S-2302 decomposition
An inhibitor sample is dissolved in a 0.05M Tris-hydrochloric acid buffer solution (pH=7.8) to make the total volume to 400 μl. To this solution, 50 μl of a 2 mM S-2302 solution is added and the mixture is incubated at a temperature of 37° C. for 5 minutes in a constant temperature bath. Then, 50 μl of a 0.12 unit/ml human plasma kallikrein is added and the mixture is incubated at a temperature of 37° C. for 5 minutes. Thereafter, 50 μl of 50% acetic acid is added to terminate the reaction. The absorbance of the p-nitroaniline formed in the reaction mixture is measured at 405 nm. Thus, the concentration I50 (μmol) of the inhibitor sample, at which the absorbance is one half (i.e., 1/2) of that obtained in the absence of the inhibitor sample, is determined.

[5] = Table 2, S-2238 substrate, pH 8.3, 37° C., read-out: Thrombin S-2238 (I50)
[6] = Table 2, concentration at which fibrin dissolution time is extended twice, pH 7.4, 37° C.

T1 sequence (P00747 581-810 limits assumed): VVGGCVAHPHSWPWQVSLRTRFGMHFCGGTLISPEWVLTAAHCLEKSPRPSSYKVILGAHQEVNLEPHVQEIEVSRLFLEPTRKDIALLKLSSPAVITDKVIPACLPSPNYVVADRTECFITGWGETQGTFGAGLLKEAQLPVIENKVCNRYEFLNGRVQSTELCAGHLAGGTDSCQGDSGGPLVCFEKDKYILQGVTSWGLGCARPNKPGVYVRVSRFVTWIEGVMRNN
T1 sequence (P00747 97-580 partner limits assumed): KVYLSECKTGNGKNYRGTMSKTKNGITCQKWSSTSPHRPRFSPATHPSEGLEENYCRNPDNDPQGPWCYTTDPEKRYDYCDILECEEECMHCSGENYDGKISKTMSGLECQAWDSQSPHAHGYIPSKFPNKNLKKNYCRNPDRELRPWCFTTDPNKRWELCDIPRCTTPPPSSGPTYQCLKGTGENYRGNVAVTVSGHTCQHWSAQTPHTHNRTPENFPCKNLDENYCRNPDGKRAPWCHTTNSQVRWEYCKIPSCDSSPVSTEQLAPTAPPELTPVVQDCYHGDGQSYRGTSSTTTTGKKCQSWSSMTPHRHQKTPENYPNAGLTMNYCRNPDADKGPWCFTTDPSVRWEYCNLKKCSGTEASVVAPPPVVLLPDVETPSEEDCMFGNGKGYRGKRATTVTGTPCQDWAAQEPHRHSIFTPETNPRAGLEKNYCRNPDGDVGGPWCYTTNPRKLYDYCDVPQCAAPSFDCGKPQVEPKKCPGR

Row | IC50 (human plasmin [1]) [µM] | IC50 (bovine thrombin [2]; [5]) [µM] | IC50 (bovine trypsin; Table 2, pH 8.1, 37° C.) [µM] | IC50 (bovine thrombin [3]) [µM] | IC50 (human plasmin [4]; [6]) [µM] | IC50 (human urokinase; Table 2, pH 8.8, 37° C.) [µM] | IC50 (human plasma kallikrein; Table 2, pH 7.8, 37° C.) [µM] | IC50 (human plasmin [1]; Table 2, 50% inhibition concentration, S-2251 substrate, pH 7.4, 37° C.) [µM] | IC50 (bovine thrombin [3]; read-out: Thrombin Fibrinogen (I50), Table 2, concentration at which coagulation time of bovine fibrinogen is extended twice, pH 7.4, 37° C.) [µM] | IC50 (bovine thrombin [2]) [µM] | IC50 (human plasmin [1]; Table 4, comparative compounds of Table 3, S-2251 substrate, pH 7.4, 37° C.) [µM] | IC50 (bovine thrombin [2]; Table 4, comparative compounds of Table 3, S-2238 substrate, pH 8.3, read-out: Thrombin S-2238 (I50)) [µM] | IC50 (bovine trypsin; Table 4, comparative compounds of Table 3, pH 8.1) [µM] | IC50 (bovine thrombin [3]; Table 4, comparative compounds of Table 3, coagulation time extended twice, read-out: Thrombin Fibrinogen (I50)) [µM] | IC50 (human plasmin [4]; Table 4, comparative compounds of Table 3, fibrin dissolution time extended twice) [µM] | IC50 (human urokinase; Table 4, comparative compounds of Table 3, pH 8.8) [µM] | IC50 (human plasma kallikrein; Table 4, comparative compounds of Table 3, pH 7.8) [µM] | SMILES
1 | 5.8 | > 50 | 38 | > 25 | 2.4 | > 250 | > 200 | – | – | – | – | – | – | – | – | – | – | NCc1ccc(C(=O)N[C@@H](Cc2ccc(OCc3ccccc3)cc2)C(=O)N2CCC(C(=O)c3ccccc3)CC2)cc1 [compound 76]
2 | 29 | > 100 | 22 | > 250 | 18 | > 500 | 350 | – | – | – | – | – | – | – | – | – | – | NCc1ccc(C(=O)N[C@@H](Cc2ccc(OCc3ccccc3)cc2)C(=O)NCc2ccncc2)cc1 [Compound No. 96, N-(4-aminomethylbenzoyl)-4-benzyloxy-L-phenylalanine 4-picolylamide dihydrochloride]
3 | 0.8 | > 50 | 3.9 | > 50 | 0.092 | 350 | 0.54 | – | – | – | – | – | – | – | – | – | – | NC[C@H]1CC[C@H](C(=O)N[C@@H](Cc2ccc(OCc3cccc(Cl)c3)cc2)C(=O)Nc2cccc(Cl)c2)CC1 [compound 66]
4 | 13 | > 200 | 0.52 | > 200 | 12 | 11 | 8.5 | – | – | – | – | – | – | – | – | – | – | NC[C@H]1CC[C@H](C(=O)NC(Cc2ccc(N)cc2)C(=O)Nc2ccc(C(=O)c3ccccc3)cc2)CC1 (some centres unmarked) [compound 33]
5 | 0.89 | > 200 | 1.5 | > 50 | 0.21 | 58 | 0.51 | – | – | – | – | – | – | – | – | – | – | CC(=O)c1ccc(NC(=O)[C@H](Cc2ccc(OCc3ccccc3Cl)cc2)NC(=O)[C@H]2CC[C@H](CN)CC2)cc1 [compound 83]
6 | 1.8 | > 200 | 2.4 | > 100 | 0.58 | > 500 | 8.3 | – | – | – | – | – | – | – | – | – | – | NCc1ccc(C(=O)N[C@@H](Cc2ccc(OCc3ccccc3)cc2)C(=O)NC2CC3CCC2C3)cc1 (some centres unmarked) [compound 62]
7 | 1.2 | > 400 | 1 | > 500 | 0.65 | 25 | 1.2 | – | – | – | – | – | – | – | – | – | – | CC(=O)c1ccc(NC(=O)[C@H](Cc2ccc(OCc3ccncc3)cc2)NC(=O)[C@H]2CC[C@H](CN)CC2)cc1 [compound 68]
8 | 0.58 | > 50 | 0.43 | > 40 | 0.27 | > 200 | 20 | – | – | – | – | – | – | – | – | – | – | CC1CCC(NC(=O)C(Cc2ccc(Oc3ccc([N+](=O)[O-])cc3)cc2)NC(=O)c2ccc(CN)cc2)CC1C (centres unmarked) [compound 109]
9 | 1.2 | > 125 | 2.6 | > 50 | 0.29 | 57 | 0.42 | – | – | – | – | – | – | – | – | – | – | CC(=O)c1ccc(NC(=O)[C@H](Cc2ccc(OCc3cccc(C(F)(F)F)c3)cc2)NC(=O)[C@H]2CC[C@H](CN)CC2)cc1 [compound 55]
10 | 1.4 | 280 | 1 | > 50 | 0.95 | 80 | 0.37 | – | – | – | – | – | – | – | – | – | – | CC(=O)c1ccc(NC(=O)[C@H](Cc2ccc(OCC(=O)c3ccccc3)cc2)NC(=O)[C@H]2CC[C@H](CN)CC2)cc1 [compound 30]
11 | 1 | > 200 | 1 | > 100 | 0.19 | 35 | 0.45 | – | – | – | – | – | – | – | – | – | – | CC(=O)c1ccc(NC(=O)[C@H](Cc2ccc(OCc3cccc([N+](=O)[O-])c3)cc2)NC(=O)[C@H]2CC[C@H](CN)CC2)cc1 [compound 54]
12 | – | 170 | 1.3 | – | 0.63 | 82 | 6.2 | 1.7 | > 50 | – | – | – | – | – | – | – | – | CCOC(=O)C1CCCC(NC(=O)[C@H](Cc2ccc(OCc3cccc(Cl)c3)cc2)NC(=O)[C@H]2CC[C@H](CN)CC2)C1 (some centres unmarked) [compound 70]
13 | 3.8 | – | 9.2 | > 50 | 0.75 | > 200 | 100 | – | – | > 50 | – | – | – | – | – | – | – | NCc1ccc(C(=O)N[C@@H](Cc2ccc(OCc3ccccc3)cc2)C(=O)NCCc2ccccc2)cc1 [compound 78]
14 | 27 | > 100 | 0.3 | > 50 | 40 | 11 | 1.9 | – | – | – | – | – | – | – | – | – | – | NC[C@H]1CC[C@H](C(=O)N[C@@H](Cc2ccccc2)C(=O)Nc2ccc(C(=O)c3ccccc3)cc2)CC1 [Compound No. 1]
15 | 15 | > 400 | 0.5 | > 400 | 7.1 | 34 | 8.3 | – | – | – | – | – | – | – | – | – | – | CC(=O)c1ccc(NC(=O)[C@H](Cc2ccc([N+](=O)[O-])cc2)NC(=O)[C@H]2CC[C@H](CN)CC2)cc1 [compound 130, N-(trans-4-aminomethylcyclohexylcarbonyl)-4-nitro-L-phenylalanine 4-acetylanilide hydrochloride]
16 | 1.4 | > 1000 | 1.3 | > 100 | 0.3 | 82 | 0.44 | – | – | – | – | – | – | – | – | – | – | NC[C@H]1CC[C@H](C(=O)N[C@@H](Cc2ccc(OCc3cccc(Cl)c3)cc2)C(=O)Nc2ccnc(Cl)c2)CC1 [compound 128]
17 | – | – | – | – | – | – | – | – | – | – | > 1000 | > 1000 | > 300 | > 1000 | > 1000 | > 1000 | > 1000 | NCc1ccc(C(=O)NC(Cc2ccccc2)C(=O)N2CCCCC2)cc1 (centres unmarked) [Table 3 Compound No. 3, reference compound]
18 | 33 | > 200 | 52 | > 20 | > 20 | > 200 | 120 | – | – | – | – | – | – | – | – | – | – | NCc1ccc(C(=O)N[C@@H](Cc2ccc(OCc3ccccc3)cc2)C(=O)NC2CCC(O)CC2)cc1 (some centres unmarked) [compound 88]
19 | 1.1 | > 100 | 0.45 | > 50 | 0.33 | > 400 | 17 | – | – | – | – | – | – | – | – | – | – | CC1CCC(NC(=O)[C@H](Cc2ccc(OCc3ccccc3)cc2)NC(=O)c2ccc(CN)cc2)CC1C (stereo partly drawn) [Compound No. 80, N-(4-aminomethylbenzoyl)-4-benzyloxy-L-phenylalanine 3,4-dimethylcyclohexylamide hydrochloride]
20 | 0.63 | > 400 | 1.5 | > 100 | 0.27 | 8 | 0.14 | – | – | – | – | – | – | – | – | – | – | CC(=O)c1ccc(NC(=O)[C@H](Cc2ccc(Oc3ccc([N+](=O)[O-])cc3)cc2)NC(=O)[C@H]2CC[C@H](CN)CC2)cc1 [Compound No. 95, N-(trans-4-aminomethylcyclohexylcarbonyl)-4-(4-nitrophenoxy)-L-phenylalanine 4-acetylanilide hydrochloride]
